Test results reported in ChEMBL document CHEMBL1201862, “PubChem BioAssay data set” (2004).
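Protocol summary: plate cells (96-well), add compound at 5 concentrations, incubate 48 h, interpolate endpoints linearly. GI50 is the concentration that inhibits growth by half.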 Active and inactive are the calls of the source. No stated cut-off is given here; in the data, active = GI50 up to about 1.1 µM and inactive = higher.

Tests used:
Experiment in all cases: NCI anticancer screen, dose series, 48 h
NCI-H23 = system: NCI-H23
786-0 = system: 786-0
OVCAR-8 = system: OVCAR-8
HT-29 = system: HT-29
A498 = system: A498
EKVX = system: EKVX
SF-268 = system: SF-268
NCI-H226 = system: NCI-H226
HL-60 = system: HL-60
KM12 = system: KM12
MCF7 = system: MCF7
T47D = system: T47D
SK-OV-3 = system: SK-OV-3
UACC-257 = system: UACC-257
M14 = system: M14
OVCAR-5 = system: OVCAR-5
Hs-578T = system: Hs-578T
NCI-H460 = system: NCI-H460
OVCAR-4 = system: OVCAR-4

Measured: GI50

COC1(OC)N=C(N)C2(C#N)C(C)CC(=O)N(N(C)C)C12C#N (configuration not stated)
inactive: NCI-H23 > 100 µM | 786-0 > 100 µM | OVCAR-8 > 100 µM | HT-29 > 100 µM | A498 > 100 µM | EKVX > 100 µM | SF-268 > 100 µM | NCI-H226 > 100 µM | HL-60 > 100 µM | KM12 > 100 µM | MCF7 > 100 µM | T47D > 100 µM | SK-OV-3 > 100 µM | UACC-257 > 100 µM | M14 > 100 µM | OVCAR-5 > 100 µM | Hs-578T > 100 µM

Cc1c2cccc-2c(N(C)C)cc2c1[nH]c1ccccc12
inactive: NCI-H23 8.93 µM | 786-0 2.97 µM | OVCAR-8 3.21 µM | HT-29 4.81 µM | A498 21 µM | EKVX 1.96 µM | SF-268 5.13 µM | NCI-H226 5.81 µM | HL-60 2.35 µM | KM12 2.74 µM | MCF7 5.31 µM | T47D 1.86 µM | NCI-H460 9.16 µM | SK-OV-3 2.67 µM | UACC-257 13 µM | M14 5.32 µM | OVCAR-5 3.23 µM | Hs-578T 3.57 µM

O=C(O)CN1C(=O)CN=C(c2ccccn2)c2cc(Cl)ccc21
inactive: 786-0 > 100 µM | OVCAR-8 > 100 µM | HT-29 > 100 µM | A498 > 100 µM | EKVX > 100 µM | SF-268 > 100 µM | NCI-H226 > 100 µM | HL-60 4.31 µM | KM12 > 100 µM | MCF7 > 100 µM | T47D > 100 µM | NCI-H460 > 100 µM | SK-OV-3 > 100 µM | UACC-257 > 100 µM | M14 > 100 µM | OVCAR-5 > 100 µM | OVCAR-4 > 100 µM | Hs-578T > 100 µM

Cc1cc(S(=O)(=O)Nc2nc(N)n(-c3cnc4ccccc4n3)n2)c(S)cc1Cl
inactive: 786-0 > 100 µM | OVCAR-8 > 100 µM | HT-29 > 100 µM | A498 62.2 µM | EKVX > 100 µM | SF-268 85.3 µM | NCI-H226 43.7 µM | HL-60 > 100 µM | KM12 60.4 µM | MCF7 > 100 µM | T47D > 100 µM | NCI-H460 36.6 µM | SK-OV-3 85.7 µM | UACC-257 > 100 µM | M14 > 100 µM | OVCAR-5 > 100 µM | OVCAR-4 > 100 µM | Hs-578T 78.5 µM

COc1ccc(-c2nnc3nc4ccccc4n3c2O)cc1
inactive: NCI-H23 > 100 µM | 786-0 > 100 µM | OVCAR-8 > 100 µM | HT-29 > 100 µM | A498 > 100 µM | EKVX > 100 µM | SF-268 > 100 µM | NCI-H226 > 100 µM | HL-60 > 100 µM | KM12 > 100 µM | MCF7 > 100 µM | T47D > 100 µM | NCI-H460 > 100 µM | UACC-257 > 100 µM | M14 > 100 µM | OVCAR-5 > 100 µM | OVCAR-4 > 100 µM | Hs-578T > 100 µM

CCOC(=O)c1nc2ccccc2nc1NCc1ccc(OC)c(OC)c1
inactive: NCI-H23 > 100 µM | 786-0 > 100 µM | OVCAR-8 > 100 µM | HT-29 > 100 µM | A498 > 100 µM | EKVX > 100 µM | SF-268 > 100 µM | NCI-H226 > 100 µM | HL-60 > 100 µM | KM12 > 100 µM | MCF7 > 100 µM | T47D > 100 µM | NCI-H460 > 100 µM | SK-OV-3 > 100 µM | UACC-257 > 100 µM | OVCAR-5 > 100 µM | OVCAR-4 > 100 µM | Hs-578T 45.9 µM
